Assay results: patent US20240409582A1, “DESIGN AND CHARACTERIZATION OF INHIBITORY PEPTIDES (IPEPS) DERIVED FROM OF MIEN 1 PROTEIN SEQUENCE” (priority 2022, published 2024)
Entries after “also recorded” stand apart in the source; their conditions may differ.

Columns and labels:
MDA-MB-231 cells [1] = test: Wound healing assay; type: cell-based, human; conditions: MDA-MB-231, dose-dependent, sub-IC50 concentrations, 18 h
Protocol: Wound healing assay: The wound-healing assay on highly metastatic MDA-MB-231 cells was performed to check the anti-migratory activity of the peptides. MDA-MB-231 cells were plated in a six-well tissue culture plate to form a sub-confluent cell monolayer. The monolayer was scraped with a sterile 200 μL pipette tip in the middle of the culture well to produce equal-sized wounds. Cell debris was removed and the scratched cell monolayer was supplemented with fresh media containing sub-IC 50 concentrations of MIEN1-derived peptide and its analogs. Wound areas were measured by ImageJ software after 18 h and were compared to control.

[2] = test system: MDA-MB-231 orthotopic tumors; test: Orthotopic breast cancer model in athymic nude mice; type: in vivo; conditions: for tumor growth: 30 mg/kg peritumoral every alternate day, 30 days; for decrease of tumor volume: 30 mg/kg peritumoral on alternate days, vs control
Protocol: Orthotropic Breast Cancer Models in Mice: All in vivo experiments were conducted on 6-8-week-old athymic nude mice (Charles River). MDA-M13-231 (1.5×10^6) cells were suspended in 50% Matrigel in DMEM high glucose (vol/vol) on ice for mammary fat pad injection. The control group received the same volume of matrigel (Corning Cat #356234) and media but no cells. […] Tumor volume was measured using a digital Vernier caliper on alternate days. The tumor volumes (mm3) were calculated using the following formula V=(W2×L)/2 (V, tumor volume: W, tumor width; L, tumor length). Mice were euthanized when rumors in the control group reached˜10% of body weight. At the end of the experiment, all animals were weighed, euthanized, and liver, lung, spleen, kidney brain, and tumors were harvested. The weights of tumors and organs were recorded.

[3] = test system: EMT genes (E-cadherin, N-Cadherin, SLUG, SNAIL, MMP-9, Zeb-1) in DU-145 prostate cancer cells; test: RT-qPCR of EMT genes in DU-145 cells; type: cell-based, human; conditions: DU-145, qPCR
Protocol: RT-qPCR Method: The changes in the mRNA levels of various genes in response to the peptide treatment in DU-145 cells were examined. Briefly, total RNA was purified using the TRIzol reagent (Invitrogen) according to the manufacturer's instructions. 1 μg of total RNA was reverse transcribed into cDNA using the Superscript-III First-Strand Synthesis kit (Invitrogen) following the manufacturer's protocol. RT-qPCR was performed with the SYBR Green Master Mix (Invitrogen) in a Realplex2 Mastercycler ep gradient S thermal cycler (Eppendorf). The PCR program followed for all the primers was an activation at 95° C. for 15 min, followed by 40 cycles of 95° C. for 30 sec, 54° C. for 1 min, and 72° C. for 45 sec. The reaction was finally put to hold at 4 C. The primers were synthesized by Integrated DNA Technologies (Coralville, IA and are described in Table 2. 18S was used as the reference genes for the mRNA levels. Fold-expression was calculated according to the ΔΔCt method.

[4] = test system: focal adhesion kinase (FAK) phosphorylation at tyrosine 925; test: Western blot, phosphorylation of FAK; type: cell-based, human; conditions: MDA-MB-231 cell lysates, 48 h
Protocol: (§1) Western blot analysis: MDA-MB-231 cells and DU-145 cells were treated with all the test peptides for 48 h. Cell lysates were prepared, and cellular protein was extracted using RIPA lysis buffer (Millipore). […] After blocking with 5% bovine serum albumin, the membrane was incubated with the primary antibodies specific for various proteins at 4° C. overnight. After primary antibody incubation, membrane was washed thrice in TBS containing 0.1% Tween-20 for 5 min each and then incubated with appropriate HRP-conjugated secondary antibody. The immunoreactive protein bands were visualized by enhanced chemiluminescence (ECL) on Alpha Innotech chemiluminescent detection system.

[5] = test system: phosphorylation of src at tyrosine 416; test: Western blot, phosphorylation of src; type: cell-based, human; conditions: MDA-MB-231, 48 h
Protocol: as §1

[6] = test system: phosphorylated cofilin (inactive cofilin); test: Western blot, phosphorylated cofilin; type: cell-based, human; conditions: whole cell lysates of MDA-MB-231 and DU-145 cells, 48 h
Protocol: as §1

MDA-MB-231 cells [7] = test: Transwell invasion assay; type: cell-based, human; conditions: MDA-MB-231, dose-dependent
Protocol: Transwell Invasion Assay: The capacity of human breast cancer MDA-MB-231 cells to pass through a polyethylene terephthalate membrane (6.4 mm diameter; 8 µm pore size) was measured using transwell chambers (Corning Life Sciences) in 24-well tissue culture plates. The MDA-MB-231 were pre-treated with the increasing concentrations of each peptide for 24 h in a 0.1% FBS containing DMEM media. Next day, cells were dislodged by trypsin and 40,000 cells/well were resuspended in a serum-free DMEM containing the second treatment of peptides and were added to the upper chamber, and 10% FBS containing media was added to the bottom chambers. After incubation for another 24 h, non-invasive cells on the upper surface of the membrane were carefully removed with a cotton swab; cells were fixed in 4% paraformaldehyde solution (Affymetrix USB) for 15 minutes followed by a PBS wash; the membrane insert was then fixed with ice-cold methanol for 20 minutes followed by staining with 0.25% crystal violet. The numbers of invaded cells were counted in random fields in Image J, and results were expressed as an average number of invaded cells compared with control.

MDA-MB-231 cells [8] = test: RNA-seq transcriptome of MDA-MB-231 cells after peptide treatment; type: cell-based, human; conditions: MDA-MB-231, RNA-seq
Protocol: RNeasy Mini Kit (Cat #74106, Qiagen,) was used for RNA isolation and all procedures were performed according to the manufacturer's specification. The purification included 15 minutes of in-column DNase I (Cat #79254, Qiagen,) treatment. […] The quality was controlled using Agilent Tapestation and Qubit 4 fluorometer. Sequencing was on an illumina NextSeq 550 system as per the recommended protocol. Raw sequencing files were adapter trimmed and quality filtered using fastp. The reads were mapped to hg38 reference genome using Hisat2. Differential gene expression analysis was performed using Deseq2.

Substance | number of migrated cells in the wound healing assay (MDA-MB-231 cells [1]) | tumor growth [2] | decrease of tumor volume [2] | gene expression of SLUG, SNAIL, MMP 9, N-Cadherin and Zeb-1 [3] | gene expression of epithelial marker E-Cadherin [3] | phosphorylation of FAK at tyrosine 925 [4] | phosphorylation of src at tyrosine 416 [5] | phosphorylated cofilin [6] | number of invaded cells (MDA-MB-231 cells [7]) | response as per RECIST ([2]; 30 mg/kg, human tumor equivalent) | phosphorylation of FAK at tyrosine 925 ([4]; listed as LA31K) | phosphorylation of src at tyrosine 416 ([5]; listed as LA31K) | changes in the transcriptome (MDA-MB-231 cells [8])
RPPCVIL [RP-7] | significantly reduced number of migrated cells | decreased tumor growth significantly | 37.43% | significant decrease | concomitant increase | inhibited; also recorded: marked inhibition | inhibited; also recorded: marked inhibition | accumulation of phosphorylated cofilin | considerable decrease in the number of invaded cells |  |  |  | 
LAIAVK [LA3IK] | significantly reduced number of migrated cells | decreased tumor growth significantly | 75.39% | significant decrease | concomitant increase | inhibited | inhibited | accumulation of phosphorylated cofilin | considerable decrease in the number of invaded cells | partial response | marked inhibition | marked inhibition | inhibited genes responsible for migration and cancer progression
